Data as given in patent US8669251B2, “8-fluorophthalazin-1(2H)-one compounds” (Genentech, Inc., priority 2011, dated 2014).

Test system: production of CD69 by B lymphocytes in human whole blood
Test: CD69 Whole Blood Assay (CD69 Hu Blood FACS)
Format: cell-based
Settings: human whole blood activated with goat F(ab')2 anti-human IgM, 20 hours, CD69 on CD20 positive cells by FACS
From the text: A CD69 Whole Blood Assay can be conducted on Formula I compounds to determine the ability of compounds to inhibit the production of CD69 by B lymphocytes in human whole blood activated by crosslinking surface IgM with goat F(ab′)2 anti-human IgM (Example 907). CD69 is a type II C-type lectin involved in lymphocyte migration and cytokine secretion. CD69 expression represents one of the earliest available indicators of leukocyte activation and its rapid induction occurs through transcriptional activation (Vazquez et al (2009) Jour. of Immunology Published Oct. 19, 2009, doi:10.4049/jimmunol.0900839). Concentration-dependent inhibition of antigen receptor stimulation by selective Btk inhibitors induces cell surface expression of the lymphocyte activation marker CD69 (Honigberg et al (2010) Proc. Natl. Acad. Sci. 107(29):13075-13080). Thus, CD69 inhibition by selective Btk inhibitors may be correlated with therapeutic efficacy of certain B-cell disorders.
Human blood is obtained from healthy volunteers, with the following restrictions: 1 week drug-free, non-smokers. Blood (approximately 20 mls to test 8 compounds) is collected by venipuncture into Vacutainer® (Becton, Dickinson and Co.) tubes with sodium heparin.
Solutions of Formula I and II compounds at 10 mM in DMSO are diluted 1:10 in 100% DMSO, then are diluted by three-fold serial dilutions in 100% DMSO for a ten point dose-response curve. The compounds are further diluted 1:10 in PBS and then an aliquot of 5.5 μl of each compound is added in duplicate to a 2 ml 96-well plate; 5.5 μl of 10% DMSO in PBS is added as control and no-stimulus wells. Human whole blood —HWB (100 μl) is added to each well. After mixing the plates are incubated at 37° C., 5% CO2, 100% humidity for 30 minutes. Goat F(ab′)2 anti-human IgM (10 μl of a 500 μg/ml solution, 50 μg/ml final) is added to each well (except the no-stimulus wells) with mixing and the plates are incubated for an additional 20 hours. At the end of the 20 hour incubation, samples are incubated with fluorescent labeled antibodies for 30 minutes, at 37° C., 5% CO2, 100% humidity. Include induced control, unstained and single stains for compensation adjustments and initial voltage settings. Samples are then lysed with PharM Lyse™ (BD Biosciences Pharmingen) according to the manufacturer's instructions. Samples are then transferred to a 96 well plate suitable to be run on the BD Biosciences HTS 96 well system on the LSRII machine. Data acquired and Mean Fluorescence Intensity values were obtained using BD Biosciences DIVA Software. Results are initially analyzed by FACS analysis software (Flow Jo). […] The inhibitory concentration (IC50, IC70, IC90) values are calculated by Prism version 5, using a nonlinear regression curve fit.

For CC[C@H]1CN(C2COC2)CCN1c1ccc(Nc2cc(-c3cc(F)cc(-n4ncc5cc(C(C)(C)C)cc(F)c5c4=O)c3CO)cn(C)c2=O)nc1 [Compound 111, (S)-6-tert-butyl-2-(3-(5-(5-(2-ethyl-4-(oxetan-3-yl)piperazin-1-yl)pyridin-2-ylamino)-1-methyl-6-oxo-1,6-dihydropyridin-3-yl)-5-fluoro-2-(hydroxymethyl)phenyl)-8-fluorophthalazin-1(2H)-one], the CD69 Hu Blood FACS (IC70) (Table 1) was 37.4 nM.
CC[C@H]1CN(C2COC2)CCN1c1ccc(Nc2cc(-c3ccnc(-n4ncc5cc(C(C)(C)C)cc(F)c5c4=O)c3CO)cn(C)c2=O)nc1 [Compound 112, (S)-6-tert-butyl-2-(4-(5-(5-(2-ethyl-4-(oxetan-3-yl)piperazin-1-yl)pyridin-2-ylamino)-1-methyl-6-oxo-1,6-dihydropyridin-3-yl)-3-(hydroxymethyl)pyridin-2-yl)-8-fluorophthalazin-1(2H)-one] was tested, and the CD69 Hu Blood FACS (IC70) (Table 1) was 32.9 nM.
Cn1cc(-c2ccnc(-n3ncc4cc(C(C)(C)C)cc(F)c4c3=O)c2CO)cc(Nc2ccncn2)c1=O [Compound 113, 6-tert-butyl-8-fluoro-2-[3-(hydroxymethyl)-4-[1-methyl-6-oxo-5-(pyrimidin-4-ylamino)-3-pyridyl]-2-pyridyl]phthalazin-1-one] gave a CD69 Hu Blood FACS (IC70) (Table 2) of 82.3 nM.
For Cc1nccc(Nc2cc(-c3ccnc(-n4ncc5cc(C(C)(C)C)cc(F)c5c4=O)c3CO)cn(C)c2=O)n1 [Compound 114, 6-tert-butyl-8-fluoro-2-[3-(hydroxymethyl)-4-[1-methyl-5-[(2-methylpyrimidin-4-yl)amino]-6-oxo-3-pyridyl]-2-pyridyl]phthalazin-1-one], the CD69 Hu Blood FACS (IC70) (Table 2) was 11.4 nM.
Work on CN1CCc2nc(Nc3cc(-c4ccnc(-n5ncc6cc(C(C)(C)C)cc(F)c6c5=O)c4CO)cn(C)c3=O)sc2C1 [Compound 115, 6-tert-butyl-8-fluoro-2-[3-(hydroxymethyl)-4-[1-methyl-5-[(5-methyl-6,7-dihydro-4H-thiazolo[5,4-c]pyridin-2-yl)amino]-6-oxo-3-pyridyl]-2-pyridyl]phthalazin-1-one] yielded a CD69 Hu Blood FACS (IC70) (Table 2) of 73.2 nM.
Cn1nc(-c2ccnc(-n3ncc4cc(C(C)(C)C)cc(F)c4c3=O)c2CO)cc(Nc2ccc(C(=O)N3CCOCC3)cn2)c1=O [Compound 116, 6-tert-butyl-8-fluoro-2-[3-(hydroxymethyl)-4-[1-methyl-5-[[5-(morpholine-4-carbonyl)-2-pyridyl]amino]-6-oxo-pyridazin-3-yl]-2-pyridyl]phthalazin-1-one] was tested, and the CD69 Hu Blood FACS (IC70) (Table 2) was 93.5 nM.
C[C@H]1CN(C2COC2)CCN1c1ccc(Nc2cc(-c3ccnc(-n4ncc5cc(C(C)(C)C)cc(F)c5c4=O)c3CO)nn(C)c2=O)nc1 [Compound 117, 6-tert-butyl-8-fluoro-2-[3-(hydroxymethyl)-4-[1-methyl-5-[[5-[(2S)-2-methyl-4-(oxetan-3-yl)piperazin-1-yl]-2-pyridyl]amino]-6-oxo-pyridazin-3-yl]-2-pyridyl]phthalazin-1-one] was tested, and the CD69 Hu Blood FACS (IC70) (Table 2) was 16.5 nM.
Work on CCn1nc(Nc2cc(-c3ccnc(-n4ncc5cc(C(C)(C)C)cc(F)c5c4=O)c3CO)cn(C)c2=O)cc1C [Compound 118, 6-tert-butyl-2-[4-[5-[(1-ethyl-5-methyl-pyrazol-3-yl)amino]-1-methyl-6-oxo-3-pyridyl]-3-(hydroxymethyl)-2-pyridyl]-8-fluoro-phthalazin-1-one] yielded a CD69 Hu Blood FACS (IC70) (Table 2) of 112 nM.
Cc1cc(Nc2cc(-c3ccnc(-n4ncc5cc(C(C)(C)C)cc(F)c5c4=O)c3CO)cn(C)c2=O)nn1C [Compound 119, 6-tert-butyl-2-[4-[5-[(1,5-dimethylpyrazol-3-yl)amino]-1-methyl-6-oxo-3-pyridyl]-3-(hydroxymethyl)-2-pyridyl]-8-fluoro-phthalazin-1-one] gave a CD69 Hu Blood FACS (IC70) (Table 2) of 24.7 nM.
For Cc1cnc(Nc2cc(-c3ccnc(-n4ncc5cc(C(C)(C)C)cc(F)c5c4=O)c3CO)cn(C)c2=O)s1 [Compound 120, 6-tert-butyl-8-fluoro-2-[3-(hydroxymethyl)-4-[1-methyl-5-[(5-methylthiazol-2-yl)amino]-6-oxo-3-pyridyl]-2-pyridyl]phthalazin-1-one], the CD69 Hu Blood FACS (IC70) (Table 2) was 139 nM.
Work on Cc1cc(Nc2cc(-c3ccnc(-n4ncc5cc(C(C)(C)C)cc(F)c5c4=O)c3CO)cn(C)c2=O)n[nH]1 [Compound 121, 6-tert-butyl-8-fluoro-2-[3-(hydroxymethyl)-4-[1-methyl-5-[(5-methyl-1H-pyrazol-3-yl)amino]-6-oxo-3-pyridyl]-2-pyridyl]phthalazin-1-one] yielded a CD69 Hu Blood FACS (IC70) (Table 2) of 79.3 nM.
CCc1cc(Nc2cc(-c3ccnc(-n4ncc5cc(C(C)(C)C)cc(F)c5c4=O)c3CO)cn(C)c2=O)nn1C [Compound 122, 6-tert-butyl-2-[4-[5-[(5-ethyl-1-methyl-pyrazol-3-yl)amino]-1-methyl-6-oxo-3-pyridyl]-3-(hydroxymethyl)-2-pyridyl]-8-fluoro-phthalazin-1-one] showed a CD69 Hu Blood FACS (IC70) (Table 2) of 37.5 nM.
CCn1cc(Nc2nc(-c3ccnc(-n4ncc5cc(C(C)(C)C)cc(F)c5c4=O)c3CO)cn(C)c2=O)cn1 [Compound 123, 6-tert-butyl-2-[4-[6-[(1-ethylpyrazol-4-yl)amino]-4-methyl-5-oxo-pyrazin-2-yl]-3-(hydroxymethyl)-2-pyridyl]-8-fluoro-phthalazin-1-one] showed a CD69 Hu Blood FACS (IC70) (Table 2) of 156 nM.
Work on CC(=O)N1CCn2nc(Nc3cc(-c4ccnc(-n5ncc6cc(C(C)(C)C)cc(F)c6c5=O)c4CO)cn(C)c3=O)cc2C1 [Compound 124, 2-[4-[5-[(5-acetyl-6,7-dihydro-4H-pyrazolo[1,5-a]pyrazin-2-yl)amino]-1-methyl-6-oxo-3-pyridyl]-3-(hydroxymethyl)-2-pyridyl]-6-tert-butyl-8-fluoro-phthalazin-1-one] yielded a CD69 Hu Blood FACS (IC70) (Table 2) of 41.5 nM.
In the case of Cc1cnc(Nc2cc(-c3ccnc(-n4ncc5cc(C(C)(C)C)cc(F)c5c4=O)c3CO)cn(C)c2=O)o1 [Compound 125, 6-tert-butyl-8-fluoro-2-[3-(hydroxymethyl)-4-[1-methyl-5-[(5-methyloxazol-2-yl)amino]-6-oxo-3-pyridyl]-2-pyridyl]phthalazin-1-one], the CD69 Hu Blood FACS (IC70) (Table 2) is reported as 521 nM.
For Cn1nc(Nc2cc(-c3ccnc(-n4ncc5cc(C(C)(C)C)cc(F)c5c4=O)c3CO)cn(C)c2=O)cc1C1CC1 [Compound 126, 6-tert-butyl-2-[4-[5-[(5-cyclopropyl-1-methyl-pyrazol-3-yl)amino]-1-methyl-6-oxo-3-pyridyl]-3-(hydroxymethyl)-2-pyridyl]-8-fluoro-phthalazin-1-one], the CD69 Hu Blood FACS (IC70) (Table 2) was 44.5 nM.
With Cc1cc(Nc2cc(-c3ccnc(-n4ncc5cc(C(C)(C)C)cc(F)c5c4=O)c3CO)nn(C)c2=O)nn1C [Compound 127, 6-tert-butyl-2-[4-[5-[(1,5-dimethylpyrazol-3-yl)amino]-1-methyl-6-oxo-pyridazin-3-yl]-3-(hydroxymethyl)-2-pyridyl]-8-fluoro-phthalazin-1-one] the CD69 Hu Blood FACS (IC70) (Table 2) was 115 nM.
With CN1CCn2nc(Nc3cc(-c4ccnc(-n5ncc6cc(C(C)(C)C)cc(F)c6c5=O)c4CO)cn(C)c3=O)cc2C1 [Compound 128, 6-tert-butyl-8-fluoro-2-[3-(hydroxymethyl)-4-[1-methyl-5-[(5-methyl-6,7-dihydro-4H-pyrazolo[1,5-a]pyrazin-2-yl)amino]-6-oxo-3-pyridyl]-2-pyridyl]phthalazin-1-one] the CD69 Hu Blood FACS (IC70) (Table 2) was 27.2 nM.
Work on Cc1cc(Nc2cc(-c3ccnc(-n4ncc5cc(C(C)(C)C)cc(F)c5c4=O)c3CO)cn(C)c2=O)no1 [Compound 129, 6-tert-butyl-8-fluoro-2-[3-(hydroxymethyl)-4-[1-methyl-5-[(5-methylisoxazol-3-yl)amino]-6-oxo-3-pyridyl]-2-pyridyl]phthalazin-1-one] yielded a CD69 Hu Blood FACS (IC70) (Table 2) of 48.8 nM.
With Cn1cnc(Nc2cc(-c3ccnc(-n4ncc5cc(C(C)(C)C)cc(F)c5c4=O)c3CO)cn(C)c2=O)c1 [Compound 130, 6-tert-butyl-8-fluoro-2-[3-(hydroxymethyl)-4-[1-methyl-5-[(1-methylimidazol-4-yl)amino]-6-oxo-3-pyridyl]-2-pyridyl]phthalazin-1-one] the CD69 Hu Blood FACS (IC70) (Table 2) was 152 nM.
With Cn1cc(-c2ccnc(-n3ncc4cc(C(C)(C)C)cc(F)c4c3=O)c2CO)cc(Nc2cc3n(n2)CCOC3)c1=O [Compound 131, 6-tert-butyl-2-[4-[5-(6,7-dihydro-4H-pyrazolo[5,1-c][1,4]oxazin-2-ylamino)-1-methyl-6-oxo-3-pyridyl]-3-(hydroxymethyl)-2-pyridyl]-8-fluoro-phthalazin-1-one] the CD69 Hu Blood FACS (IC70) (Table 2) was 17.1 nM.
